Our source for the TGI values is PubChem BioAssay (NCI).

Structures are written as SMILES.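 Each compound was tested at five concentrations against cells in 96-well plates for 48 hours. At the TGI there is no net growth.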 Bounds are passed on as bounds.

Holding throughout (assay): NCI anticancer screen, dose series, 48 h
The subject of test [1] is A498 renal.
Test [2] deals with A549 NSCLC.
The subject of test [3] is HCT-116 colon.
Test [4] relates to LOX IMVI melanoma.
The test system of test [5] is MALME-3M melanoma.
The test system of test [6] is MCF7 breast.
The subject of test [7] is MOLT-4 leukemia.
Test [8] concerns NCI-H522 lung.
The subject of test [9] is SK-MEL-2 melanoma.
The test system of test [10] is SK-MEL-28 melanoma.

On to `CC1=CC2C3(C)C(C)(C(C)=CP3(=O)c3c(C(C)C)cc(C(C)C)cc3C(C)C)C1P2(=O)c1c(C(C)C)cc(C(C)C)cc1C(C)C` (stereo not given), for which the TGI in [1] was determined as 6.26 µM; in test [2], 9.08 µM; in test [3], 4.02 µM; in test [4], 3.26 µM; in [5] it was 5.79 µM; in [6] it was 6.38 µM. For the same compound, the TGI is 5.78 µM in [7], 8.64 µM in [8], 3.37 µM in [9] and 8.23 µM in [10].
Consider `NCCN1CCCCCc2ccccc21`, for which the TGI in test [1], in [2], in test [3], in [4], in [5] and in [6] was greater than 10 µM throughout. The TGI in [7], in [8], in test [9] and in test [10] was greater than 10 µM throughout.
Regarding `CN1CSC(=S)N(c2cccc(C(F)(F)F)c2)C1`, the TGI is 82.1 µM in [1]; 73 µM in test [2]; greater than 100 µM in test [3]; 43.1 µM in test [4]; 35.2 µM in test [5]; 33.3 µM in [6]. For the same compound, the TGI in [7] is 57 µM; in test [8], 30.8 µM; in [9], 43.3 µM; in test [10], 52 µM.
Regarding `CC(=O)O[C@@H](c1nccn1Cc1ccccc1)[C@H]1OC(C)(C)O[C@@H]1[C@H]1COC(C)(C)O1`, the TGI in test [1], in [2], in [3], in test [4], in [5] and in test [6] was greater than 100 µM throughout. Also, the TGI in test [7], in test [8], in test [9] and in [10] was greater than 100 µM throughout.
Turning to `CCOC(=O)c1c(N2CCCC2)[nH]c(=O)c(C(c2ccc(OC)cc2)c2c(O)c(C(=O)OCC)c(N3CCCC3)[nH]c2=O)c1O`, the TGI in test [1], in [2], in test [3], in [4], in [5] and in test [6] was greater than 100 µM throughout. Further, the TGI in test [7] was greater than 100 µM; in test [8], greater than 100 µM; in [9], 53.9 µM; in test [10], greater than 100 µM.
With `COc1ccc2ccc3oc(=O)c(C)cc3c2c1`, the TGI in test [1], in test [2], in test [3], in test [4], in [5] and in test [6] was greater than 100 µM in each case. Further, the TGI in test [7], in test [8], in [9] and in test [10] was greater than 100 µM each time.
For the compound `Cc1nc(N)c(N2CCN(C#N)CC2)c(=O)[nH]1`, the TGI in [1], in test [2], in test [3], in test [4], in test [5] and in test [6] was greater than 100 µM each time. Further, the TGI in test [7], in test [8], in test [9] and in test [10] was greater than 100 µM throughout.
In the case of `O=c1ccc2ccc(S)cc2o1`, the TGI in test [1], in test [2], in test [3], in test [4], in test [5] and in [6] was greater than 100 µM in each case. In addition, the TGI in test [7], in test [8], in test [9] and in [10] was greater than 100 µM in each case.
For the compound `O=C(COc1ccc(OCC(=O)N/N=C/c2ccc(-c3ccc(Cl)cc3Cl)o2)c(Cl)c1)N/N=C/c1ccc(-c2ccc(Cl)cc2Cl)o1`, the TGI in [1], in test [2], in [3], in test [4], in [5] and in [6] was greater than 100 µM each time. Besides, the TGI is 5.5 µM in test [7], greater than 100 µM in test [8], greater than 100 µM in test [9] and greater than 100 µM in test [10].
As for `CC(C)C(Br)CCC1=CCC(Br)(Br)C1` (stereo not given), the TGI is 32.8 µM in test [1]; 33.8 µM in test [2]; 27.9 µM in [3]; 3.05 µM in [4]; 27.9 µM in test [5]; 23.9 µM in test [6]. Also, the TGI in test [7] was greater than 100 µM; in test [8], 6.81 µM; in test [9] it was 19.3 µM; in test [10], 29 µM.
With `CC1(C)CC(=O)C2=C(C1)C(c1ccccc1Cl)C1C(=O)CC(C)(C)CC1(O)O2` (stereo not given), the TGI in [1], in [2], in test [3], in [4], in test [5] and in [6] was greater than 100 µM throughout. Also, the TGI in [7], in [8], in test [9] and in [10] was greater than 100 µM each time.
Turning to `CN(C)CCN(c1ccccn1)c1ccccn1`, the TGI in [1], in [2], in [3], in test [4], in [5] and in test [6] was greater than 100 µM throughout. The TGI in test [7], in [8], in [9] and in [10] was greater than 100 µM each time.
Take `c1c[nH]c(-c2cccc3nsnc23)c1`: the TGI in test [1], in test [2], in test [3], in [4], in test [5] and in test [6] was greater than 100 µM throughout. The TGI in [7], in [8], in test [9] and in test [10] was greater than 100 µM throughout.
